This assay concerns the target T1, EGFR (ErbB1) T790M (Homo sapiens, UniProt P00533, T790M).
T1 construct: purchased Thermo Fisher Scientific (Life Technologies) SelectScreen
As to the kind of experiment: SelectScreen Z'LYTE. The format is biochemical. In short, it runs like this:
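Compound tested in SelectScreen activity assays, Z'LYTE for CSF1R, CDK1/cyclin B and MAP2K6 and Adapta for CAMK1. ATP for CAMK1 was listed as 10, and Km app was used for CSF1R. Results are expressed in percent.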

This passage reports inhibition results from PMC6934184, “Selective DNA-PKcs inhibition extends the therapeutic index of localized radiotherapy and chemotherapy” (The Journal of Clinical Investigation, 2019).

Each structure is given as a SMILES string.

T1 sequence (P00533 25-1210 T790M): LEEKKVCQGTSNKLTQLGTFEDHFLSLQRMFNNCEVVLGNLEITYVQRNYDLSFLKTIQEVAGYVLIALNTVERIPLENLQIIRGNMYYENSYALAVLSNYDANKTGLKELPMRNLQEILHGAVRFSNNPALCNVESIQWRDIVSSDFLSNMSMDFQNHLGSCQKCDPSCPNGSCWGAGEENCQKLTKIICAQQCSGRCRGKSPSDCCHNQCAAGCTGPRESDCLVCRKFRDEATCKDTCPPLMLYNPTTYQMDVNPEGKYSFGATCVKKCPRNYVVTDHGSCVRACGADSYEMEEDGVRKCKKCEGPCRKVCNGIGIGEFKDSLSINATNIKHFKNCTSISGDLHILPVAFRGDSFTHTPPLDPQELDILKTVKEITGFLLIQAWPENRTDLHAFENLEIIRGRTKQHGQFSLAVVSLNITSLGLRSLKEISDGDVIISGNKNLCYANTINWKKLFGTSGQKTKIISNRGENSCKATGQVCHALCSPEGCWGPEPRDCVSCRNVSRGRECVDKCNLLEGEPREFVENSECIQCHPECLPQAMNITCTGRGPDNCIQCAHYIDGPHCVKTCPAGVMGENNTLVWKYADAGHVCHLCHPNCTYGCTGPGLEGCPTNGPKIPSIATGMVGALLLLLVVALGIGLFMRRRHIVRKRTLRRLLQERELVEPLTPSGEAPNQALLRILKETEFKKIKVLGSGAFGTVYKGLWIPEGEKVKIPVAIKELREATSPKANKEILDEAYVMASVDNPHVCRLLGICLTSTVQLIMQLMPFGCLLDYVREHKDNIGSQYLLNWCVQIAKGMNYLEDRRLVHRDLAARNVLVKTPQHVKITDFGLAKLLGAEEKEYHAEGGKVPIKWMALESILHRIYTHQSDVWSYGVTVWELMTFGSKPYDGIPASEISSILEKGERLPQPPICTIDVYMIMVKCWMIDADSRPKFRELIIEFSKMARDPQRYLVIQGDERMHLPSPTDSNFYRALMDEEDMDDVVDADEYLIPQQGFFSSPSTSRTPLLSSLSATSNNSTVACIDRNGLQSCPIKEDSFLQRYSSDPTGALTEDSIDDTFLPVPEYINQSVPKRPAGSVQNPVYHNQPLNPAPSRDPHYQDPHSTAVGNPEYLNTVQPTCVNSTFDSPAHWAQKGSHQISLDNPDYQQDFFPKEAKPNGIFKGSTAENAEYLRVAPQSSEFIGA

Broadly, the inhibition is the relative decrease from the control value, in per cent. For the compound `CN(C(=O)CN1CCOCC1)c1ccc2sc3c(-c4cccc5c(=O)cc(N6CC7CCC(C6)O7)oc45)cccc3c2c1` [NU5455], the inhibition at 1 µM was -3.3%.
